Reference: ChEMBL document CHEMBL1201862, “PubChem BioAssay data set” (2004)
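Values below derive from 48-hour exposures of cells grown in 96-well plates, with endpoints linearly interpolated between the two concentrations bracketing the appropriate inhibition level. GI50: concentration for 50% inhibition of growth.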 Active and inactive are the calls of the source. No stated cut-off is given here; in the data, active = GI50 up to about 1.1 µM and inactive = higher.

Tests used:
Experiment in all cases: NCI anticancer screen, dose series, 48 h
COLO 205 = test system: COLO 205
A498 = test system: A498
MCF7 = test system: MCF7
MOLT-4 = test system: MOLT-4
SNB-19 = test system: SNB-19
SK-MEL-2 = test system: SK-MEL-2
SK-MEL-28 = test system: SK-MEL-28
Malme-3M = test system: Malme-3M
HCT-15 = test system: HCT-15
UO-31 = test system: UO-31
HCT-116 = test system: HCT-116
HCC 2998 = test system: HCC 2998
MDA-MB-231 = test system: MDA-MB-231
OVCAR-5 = test system: OVCAR-5
SF-268 = test system: SF-268
NCI-H460 = test system: NCI-H460
SF-295 = test system: SF-295
PC-3 = test system: PC-3
OVCAR-4 = test system: OVCAR-4
NCI-H23 = test system: NCI-H23
786-0 = test system: 786-0
DU-145 = test system: DU-145
OVCAR-3 = test system: OVCAR-3
KM12 = test system: KM12
HOP-62 = test system: HOP-62
A549 = test system: A549
IGROV-1 = test system: IGROV-1
SN12C = test system: SN12C
LOX IMVI = test system: LOX IMVI
SW-620 = test system: SW-620
U-251 = test system: U-251
Hs-578T = test system: Hs-578T
HT-29 = test system: HT-29
K562 = test system: K562
ACHN = test system: ACHN
EKVX = test system: EKVX
HOP-92 = test system: HOP-92
UACC-62 = test system: UACC-62
RXF 393 = test system: RXF 393
NCI/ADR-RES = test system: NCI/ADR-RES
MDA-MB-435 = test system: MDA-MB-435
UACC-257 = test system: UACC-257
SK-OV-3 = test system: SK-OV-3
SR = test system: SR
NCI-H226 = test system: NCI-H226
M14 = test system: M14
SNB-75 = test system: SNB-75
TK-10 = test system: TK-10
SF-539 = test system: SF-539
HL-60 = test system: HL-60
MDA-N = test system: MDA-N
CAKI-1 = test system: CAKI-1
CCRF-CEM = test system: CCRF-CEM
RPMI-8226 = test system: RPMI-8226
T47D = test system: T47D
OVCAR-8 = test system: OVCAR-8

In the case of `O=C(CN1CCCCC1)c1ccc2c(c1)Sc1ccccc1O2`, the GI50 (COLO 205) is reported as 7.73 µM (inactive), the GI50 (A498) is reported as 16 µM (inactive) and the GI50 (MCF7) is reported as 15.9 µM (inactive). For the same molecule, the GI50 (MOLT-4) was 23.1 µM (inactive), the GI50 (SNB-19) was 13.7 µM (inactive) and the GI50 (SK-MEL-2) was 18.7 µM (inactive). The GI50 (SK-MEL-28) was 18.7 µM (inactive), the GI50 (Malme-3M) was 17.6 µM (inactive) and the GI50 (HCT-15) was 11 µM. For the same molecule, the GI50 (UO-31) was 10.4 µM (inactive), the GI50 (HCT-116) was 14.4 µM (inactive) and the GI50 (HCC 2998) was 15.5 µM (inactive). For the same molecule, the GI50 (MDA-MB-231) was 16.7 µM (inactive), the GI50 (OVCAR-5) was 15 µM (inactive) and the GI50 (SF-268) was 17.5 µM (inactive). For the same molecule, the GI50 (NCI-H460) was 14.1 µM (inactive), the GI50 (SF-295) was 15.7 µM (inactive) and the GI50 (PC-3) was 11.6 µM (inactive). The GI50 (OVCAR-4) was 13 µM (inactive), the GI50 (NCI-H23) was 13.1 µM (inactive) and the GI50 (786-0) was 14.8 µM (inactive). The GI50 (DU-145) was 20.9 µM (inactive), the GI50 (OVCAR-3) was 15.3 µM (inactive) and the GI50 (KM12) was 16 µM (inactive). For the same molecule, the GI50 (HOP-62) was 16.1 µM (inactive), the GI50 (A549) was 14.2 µM (inactive) and the GI50 (IGROV-1) was 10.6 µM (inactive). The GI50 (SN12C) was 19.2 µM (inactive), the GI50 (LOX IMVI) was 10.2 µM (inactive) and the GI50 (SW-620) was 17.8 µM (inactive). For the same molecule, the GI50 (U-251) was 15.5 µM (inactive), the GI50 (Hs-578T) was 5.18 µM (inactive) and the GI50 (HT-29) was 10.9 µM (inactive). The GI50 (K562) was 57 µM (inactive), the GI50 (ACHN) was 14.1 µM (inactive) and the GI50 (EKVX) was 17.1 µM (inactive). For the same molecule, the GI50 (HOP-92) was 7.64 µM (inactive), the GI50 (UACC-62) was 11.5 µM (inactive) and the GI50 (RXF 393) was 4.12 µM (inactive). For the same molecule, the GI50 (NCI/ADR-RES) was 16.7 µM (inactive), the GI50 (MDA-MB-435) was 14.5 µM (inactive) and the GI50 (UACC-257) was 18.5 µM (inactive). For the same molecule, the GI50 (SK-OV-3) was 15.5 µM (inactive), the GI50 (SR) was 18.4 µM (inactive) and the GI50 (NCI-H226) was 14.2 µM (inactive). For the same molecule, the GI50 (M14) was 14.1 µM (inactive), the GI50 (SNB-75) was 11.6 µM (inactive) and the GI50 (TK-10) was 18.9 µM (inactive). The GI50 (SF-539) was 14.3 µM (inactive), the GI50 (HL-60) was 14.2 µM (inactive) and the GI50 (MDA-N) was 15.8 µM (inactive). For the same molecule, the GI50 (CAKI-1) was 18.3 µM (inactive), the GI50 (CCRF-CEM) was 12.6 µM (inactive) and the GI50 (RPMI-8226) was 30.8 µM (inactive). The GI50 (T47D) was 22.8 µM (inactive) and the GI50 (OVCAR-8) was 16.9 µM (inactive).
